From patent US8137970B2, “Methods for inducing the differentiation of hematopoietic stem cells into megakaryocytes and platelets, and gene controlling the differentiation” (Ewha University-Industry Collaboration Foundation, priority 2008, dated 2012) come the findings set out here.

What all share (assay type): cell-based, human
The test system of test [1] is umbilical cord blood-derived CD34+ hematopoietic stem cell. Nature of the test: Morphological change and polyploidization of CD34+ hematopoietic stem cells cocultured with OP9 stromal cells. As to the method: (§1) The OP9 stromal cell line was aliquoted into 6-well culture plate at a density of 1×10^5/well, and cultured for 24 hrs as a monolayer in a-MEM supplemented with 20% heat-inactivated FBS, 0.5% penicillin/streptomycin and 1.5 g/L sodium bicarbonate. When the OP9 stromal cell line was cultured as a monolayer, the media was replaced with StemSpan™ H3000 for CD34+ hematopoietic stem cell culture. Then, the CD34+ hematopoietic stem cells were aliquoted upper the op cells at a density of 3×10^5/well.
In order to confirm the distinct morphological change of the umbilical cord blood-derived CD34+ hematopoietic stem cell treated with the compound of Formula 1, the cells were treated with the compound of Formula 1 and the known hematopoietic stem cell differentiation inducers, CC100, CC200, IL-3, IL-6, TPO and SCF, so as to investigate morphological changes and polyploidization of the CD34+ hematopoietic stem cell.
The CD34+ hematopoietic stem cells cocultured with OP9 cells through Example 1 were treated with each of the materials. The cells were treated with each of the hematopoietic stem cell differentiation inducers at a following concentration; CC100 (rhFlt-3 ligand 100 ng/ml, SCF 100 ng/ml, IL-3 20 ng/ml, IL-6 20 ng/ml), CC200 (rhTPO 50 ng/ml, rhSCF 50 ng/ml, IL-3 10 ng/ml), Megacult-C (TPO 5 ng/ml, IL-3 1 ng/ml, IL-6 2 ng/ml), IL-3 of 10 ng/ml, IL-6 of 20 ng/ml, SCF of 50 ng/ml, and (R)-NALPCE of 45 μg/ml.
After 8 days, the cells were photographed by Mag. ×200 to examine the morphological changes (FIG. 1).
In addition, polyploidization of the cells was analyzed by FACS (flow cytometer). The cells were harvested and resuspended with 1×PBS containing 0.1% saponin. 10 mg/mL RNAse A and propidium iodide solution were added thereto. Thereafter, the cells were incubated at room temperature for 30 min. The cells were analyzed by FACS caliber flow cytometer and Cell quest software. Results are means±SD (n=3). Similar results were obtained in three independent experiments (FIG. 1).

Test [2] relates to umbilical cord blood-derived CD34+ hematopoietic stem cells. Nature of the test: CD41 / CD61 megakaryocyte-specific marker expression by FACS in CD34+ hematopoietic stem cells cocultured with OP9. The note with it: FIG. 2. As to the method: as §1
In order to confirm whether the differentiation of the umbilical cord blood-derived CD34+ hematopoietic stem cells into megakaryocytes and platelets was induced by treatment of the compound of Formula 1, the cells were treated with the compound of Formula 1 and the known hematopoietic stem cell differentiation inducers, CC200 and Megacult-C, singly or in a mixture. Then, expression of megakaryocyte-specific marker, CD41 or CD61 was analyzed.
The CD34+ hematopoietic stem cells cocultured with OP9 cells through Example 1 were treated with each of the hematopoietic stem cell differentiation inducers at a following concentration; CC200 (rhTPO 50 ng/ml, rhSCF 50 ng/ml, IL-3 10 ng/ml), Megacult-C (TPO 5 ng/ml), and (R)-NALPCE 35 ug/ml in culture media.
After 8 days, the culture media were centrifuged (1,000 rpm, 10 min), and the cell pellets thus obtained were washed three times with PBS. The cells were incubated with 20 μl of Fluorescein isothiocyanate (FITC)-conjugated mouse anti-human monoclonal CD41 antibody (DAKOCycomation, Denmark) or 20 μl of Fluorescein isothiocyanate(FITC)-conjugated mouse anti-human monoclonal CD61 antibody (DAKOCycomation, Denmark) in 200 μl of 0.01% bovine serum albumin (BSA)-PBS at 37° C. for 30 min while spinning to realize homogeneous fluorescent staining. After centrifugation (1,000 rpm, 10 min), the cell pellets thus obtained were washed three times with 0.01% bovine serum albumin (BSA) in PBS. Fluorescence was analyzed on a fluorescence-activated cell sorter (FACS Aria) using a Cellquest program. Results are means±SD (n=3). […]
For orientation: A flow cytometer gives signals particle by particle.

Test [3] has as its system K562 cells. As to the kind of experiment: Oligonucleotide array (genechip) of gene expression during megakaryocytic differentiation. The note with it: K562 cells treated with 50 μg/ml vs undifferentiated cells. As to the method:
(§2) The OP9 stromal cell line was aliquoted into 6-well culture plate at a density of 1×10^5/well, and cultured for 24 hrs as a monolayer in a-MEM supplemented with 20% heat-inactivated FBS, 0.5% penicillin/streptomycin and 1.5 g/L sodium bicarbonate. When the OP9 stromal cell line was cultured as a monolayer, the K562 cells were aliquoted upper the OP9 cells at a density of 1×10^5/well, and cocultured with the OP9 cells. These K562 cells were treated with (R)-NALPLE (see Korean Patent No. 10-0688261) at a concentration of 50 μg/ml to induce megakaryocytic differentiation.
mRNAs were extracted from normal K562 cells and compound-treated K562 cells by the method of Example 5. To understand the genetic events during megakaryocytic development, the K562 cells were incubated for 6, 12, 24, 48, 72, 96, and 120 hr with the compound, and mRNAs were extracted from each cell using an RNeasy mini kit (Qiagen, USA). A genechip analysis was performed using 1 μg of RNA and an oligonucleotide array from Macrogen.
From analyzed data, total 67 genes, of which expression levels were increased more than 5-fold in differentiated K562 cells, were assigned. The functional categories included transcription factor, receptor, miscellaneous function, select calcium binding protein, phosphatase, signaling molecule, select regulatory factor, protease, nucleic acid binding, cytoskeleton protein, kinase, cell adhesion molecule, transferase, synthase, hydrolase defense/immunity and molecular function unclassified. Among these genes, selected were 4 genes of which expression levels were increased more 10 fold in differentiated cells, such as KLF2 (Kiruppel-like factor2), LOC138255 (OTTHUMP00000021439), GDF15 (growth differentiation factor 15) and INHBE (inhibin, betaE).

The subject of test [4] is K562 cells. Nature of the test: Polyploidization (FACS) and morphology of shRNA-transfected K562 cells cocultured on OP9 in (R)-NALPCE. The note with it: 50 μg/mL for 4 days, cocultured on OP9, FIG. 4. The procedure:
To confirm whether the selected genes regulate the differentiation into megakaryocyte and platelets, shRNAs capable of inhibiting expressions of the KLF2, LOC138255, GDF15, and INHBE genes were constructed, and K562 cells were transfected with shRNAs.
The transfected K562 cells were sorted by FACS Aria flow cytometer, and cocultured upper OP9 stromal cells in 50 μg/mL of (R)-NALPCE for 4 days. Then, the cells were analyzed with a fluorescence-activated cell sorter using Cell quest, and photographed by Mag. ×200. Results are means±SD (n=3). Similar results were obtained in three independent experiments (FIG. 4).

For test [5], the system named is K562 cells. As to the kind of experiment: RT-PCR of KLF2, LOC138255, GDF15 and INHBE mRNA during megakaryocytic development. The conditions noted are these: 50 μg/ml, incubated 6, 12, 24, 48, 72, 96 and 120 hr, FIG. 3. As to the method:
as §2
To analyze the expression patterns of the selected 4 genes, KLF2, LOC138255, GDF15, and INHBE during megakaryocytic development, RT-PCR was performed to measure the mRNA level in cells.
In order to specifically analyze their expression patterns during megakaryocytic development, the K562 cells were incubated for 6, 12, 24, 48, 72, 96, and 120 hr with the compound ((R)-NALPLE 50 μg/ml). Total cellular RNA was extracted from the K562 cells using an RNeasy mini kit following the manufacturer's instructions using M-MLV Reverse Transcriptase (Promega, Madison, Wis.), and RT-PCR was performed.
Amplification conditions were followed by 20 cycles (for GAPDH) or 25 cycles (for KLF2, LOC138255, GDF15, and INHBE) at 95° C. for 30 seconds, 60° C. for 60 seconds, and 72° C. for 90 seconds. The primers used were the following: • KLF2 forward primer (SEQ ID NO.1): 5′-[…]-3′ • reverse primer (SEQ ID NO.2);5′-CATGTGCCGTTTCATGTGC-3′ • LOC138255 forward primer )SEQ ID NO.3); 5′-[…]-3′ • reverse primer )SEQ ID NO. 4);5′-[…]-3′ • GDF15 forward primer 9SEQ ID NO. 5); 5′-[…]-3′ • reverse primer (SEQ ID NO. 6): 5′-[…]-3′ • INHBE forward primer (SEQ ID NO. 7); 5′-[…]-3′ • reversre primer (SEQ ID NO. 8);5′[…]-3′ • GARDH forward primer (SEQ ID NO. 9);5′-[…]-3′ • reverse primer (SEQ ID NO. 10);5′-[…]-3′
After PCR reaction, each reaction mixture was analyzed by 1% agarose gel electrophoresis, and the bands were visualized by ethidium bromide staining (FIG. 3).

Consider `CCCCCCCCCCCCCCCCCC(=O)N[C@H](COP(=O)([O-])OCC[N+](C)(C)C)C(=O)OC` [compound of Formula 1, N-steroyl-O-phosphocholine-D-serine methyl ester], for which the “morphological change (morphological feature of megakaryocytes)” value in test [1] (45 μg/ml, after 8 days, cocultured with OP9 cells, photographed Mag. x200, FIG. 1) is “increase in cytoplasmic mass and cell size”. The “polyploidization (FACS, propidium iodide)” value in test [1] (45 μg/ml, cocultured with OP9 cells, FIG. 1) was “high nucleus number due to polyploidization through endomitosis”. Further, in test [1] (addition of compound to CC200 (rhTPO 50 ng/ml, rhSCF 50 ng/ml, IL-3 10 ng/ml)), the “megakaryocytic differentiation together with CC200, compared to each single treatment” value is recorded as “more induced megakaryocytic differentiation”. The “megakaryocytic differentiation together with Megacult-C, compared to each single treatment” value in test [1] (addition of compound to Megacult-C (TPO 5 ng/ml, IL-3 1 ng/ml, IL-6 2 ng/ml)) was “more induced megakaryocytic differentiation”. For the same compound, the “expression level of CD41 or CD61, CC200 together with the compound vs single treatment of CC200” value in test [2] (35 ug/ml plus CC200, after 8 days) is listed as “higher”. For the same compound, in test [2] (35 ug/ml plus Megacult-C (TPO 5 ng/ml), after 8 days), the “expression level of CD41 or CD61, megacult-C together with the compound vs single treatment of megacult-C” value is given as “higher”. Further, the “expression level of megakaryocyte-specific marker CD41 or CD61, compared with cells treated with CC200 or megacult-C” value in test [2] (single treatment 35 ug/ml, after 8 days) was “higher”. Also, in test [3], the “GDF15 expression increase in differentiated cells (oligonucleotide array)” value is on record as > 10 fold, the “INHBE expression increase in differentiated cells (oligonucleotide array)” value was > 10 fold, the “KLF2 expression increase in differentiated cells (oligonucleotide array)” value was > 10 fold and the “LOC138255 expression increase in differentiated cells (oligonucleotide array)” value is > 10 fold. Further, the “polyploidization of non-transfected K562 cells” value in test [4] is reported as “high nucleus number due to polyploidization through the endomitosis”.
On to “N-steroyl-O-phosphocholine-D-serine methyl ester [compound of Formula 1]”, for which, in test [5], the “GDF15 gene expression pattern (RT-PCR)” value is given as “markedly expressed at 12 to 96 hr”, the “INHBE gene expression pattern (RT-PCR)” value is reported as “markedly expressed at 12 to 96 hr”, the “KLF2 gene expression pattern (RT-PCR)” value is “markedly expressed at 12 to 96 hr” and the “LOC138255 gene expression pattern (RT-PCR)” value is listed as “markedly expressed at 12 to 96 hr”.
